In article PMC6337169, “Catechol 1,2-Dioxygenase is an Analogue of Homogentisate 1,2-Dioxygenase in Pseudomonas chlororaphis Strain UFB2” (International Journal of Molecular Sciences, 2018):

Test system: T1, catechol 1,2-dioxygenase (C12O) from PcUFB2; identified by ES-MS as homogentisate 1,2-dioxygenase (H12D)
T1 construct: gene hmgA; native purification from UFB2 cells grown on phenol (ANX anion exchange, Sephacryl HR100); 35 kDa on SDS-PAGE
Experiment: UV spectrophotometry, cis,cis-muconic acid at […] nm; Lineweaver-Burk / Michaelis-Menten fit
Format: biochemical, Pseudomonas chlororaphis
Conditions: 50 mM sodium phosphate pH 8, 30 °C, 30 min, 0-500 µM catechol

## Oc1ccccc1O [catechol]
  Km: 35.8 µM
